{"source": "patent EP4162935B1", "about": "(UNIVERSIDADE NOVA DE LISBOA, priority 2021, dated 2023)", "key": {"[1]": {"conditions": "oral administration of a single dose of 300 mg/kg and 2000 mg/kg, 14 days of observation; cited from earlier work"}, "SARS-CoV-2": {"system": "SARS-CoV-2", "assay": "SARS-CoV-2 cell infection assay in Vero E6 cells, intracellular ATP levels (CellTiter-Glo) and cytopathic effect"}}}
{"molecule": "COc1ccc(-c2cc(=O)c3c(O)cc(O)cc3o2)cc1O", "note": "[diosmetin, 5,7-Dihydroxy-2-(3-hydroxy-4-methoxyphenyl)-4H-benzopyran-4-one]", "values": [{"measurement": "signs of toxicity or mortality", "setting": "[1]", "value": "did not demonstrate any signs of toxicity or mortality"}, {"measurement": "duration of antiviral effect", "setting": "SARS-CoV-2; 45 µM", "value": 72, "unit": "h"}, {"measurement": "optimal concentration", "setting": "SARS-CoV-2; same as in µM, Vero E6 cells, 30 pfu SARS-CoV-2, 72h", "value": 13.5, "unit": "µg/mL"}]}
